Assay results from patent US8318719B2, “Inhibitors of Bruton's tyrosine kinase” (Roche Palo Alto LLC, priority 2009, dated 2012).

Test system: B cell receptor-mediated activation of B cells in human blood
Assay: Inhibition of B cell activation in whole blood measured by CD69 expression
Format: cell-based
Conditions: anti-IgM stimulation 20 h, concentration decreasing by 50% the percentage of CD69-positive cells that are also CD20-positive
Method: Inhibition of B Cell Activation in Whole Blood Measured by CD69 Expression
A procedure to test the ability of Btk inhibitors to suppress B cell receptor-mediated activation of B cells in human blood is as follows:
Human whole blood (HWB) is obtained from healthy volunteers, with the following restrictions: 24 hr drug-free, non-smokers. Blood is collected by venipuncture into Vacutainer tubes anticoagulated with sodium heparin. Test compounds are diluted to ten times the desired starting drug concentration in PBS (20×), followed by three-fold serial dilutions in 10% DMSO in PBS to produce a nine point dose-response curve. 5.5 μl of each compound dilution is added in duplicate to a 2 mL 96-well V bottom plate (Analytical Sales and Services, #59623-23); 5.5 μl of 10% DMSO in PBS is added to control and no-stimulus wells. HWB ([…] is added to each well, and after mixing the plates are incubated at 37 C, 5% CO2, 100% humidity for 30 minutes. Goat F(ab′)2 anti-human IgM (Southern Biotech, #2022-14) (10 μl of a 500 μ/mL solution, 50 μg/mL final concentration) is added to each well (except the no-stimulus wells) with mixing and the plates are incubated for an additional 20 hours. At the end of the 20 hour incubation, samples are incubated with florescent-probe-labeled anti-bodies (15 ul PE Mouse anti-Human CD20, BD Pharmingen, #555623, and/or 20 ul APC Mouse anti-Human CD69, BD Pharmingen #555533) for 30 minutes, at 37 C, 5% CO2, 100% humidity. Included are induced control, unstained and single stains for compensation adjustments and initial voltage settings. Samples are then lysed with 1 mL of 1× Pharmingen Lyse Buffer (BD Pharmingen #555899), and plates are centrifuged at 1800 rpm for 5 minutes. Supernatants are removed via suction and the remaining pellets are lysed again with another 1 mL of 1× Pharmingen Lyse Buffer, and plates are spun down as before. Supernatants are aspirated and remaining pellets are washed in FACs buffer (PBS+1% FBS). After a final spin, the supernantants are removed and pellets are resuspended in 180 ul of FACs buffer. Samples are transferred to a 96 well plate suitable to be run on the HTS 96 well system on the BD LSR II flow cytometer. Using appropriate excitation and emission wavelengths for the fluorophores used, data are acquired and percent positive cell values are obtained using Cell Quest Software. Results are initially analyzed by FACS analysis software (Flow Jo). […] The IC50 values are calculated using XLfit software version 3, equation 201.

Molecule `Cn1cc(-c2cccc(N3CCNc4cc(C5CC5)ccc4C3=O)c2CO)cc(Nc2ccc(C(=O)N3CCOCC3)cn2)c1=O` [Compound I-1, 8-Cyclopropyl-4-(2-hydroxymethyl-3-{1-methyl-5-[5-(morpholine-4-carbonyl)-pyridin-2-ylamino]-6-oxo-1,6-dihydro-pyridin-3-yl}-phenyl)-1,2,3,4-tetrahydro-benzo[e][1,4]diazepin-5-one] has an IC50 of 111 nM.
Molecule `Cn1cc(-c2cccc(N3CCNc4cc(C5CC5)ccc4C3=O)c2CO)cc(Nc2ccc(N3CCOCC3)cn2)c1=O` [Compound I-2, 8-Cyclopropyl-4-{2-hydroxymethyl-3-[1-methyl-5-(5-morpholin-4-yl-pyridin-2-ylamino)-6-oxo-1,6-dihydro-pyridin-3-yl]-phenyl}-1,2,3,4-tetrahydro-benzo[e][1,4]diazepin-5-one] has an IC50 of 96 nM.
`Cn1cc(-c2cccc(N3CCNc4cc(C(C)(C)C)ccc4C3=O)c2CO)cc(Nc2ccc(C(=O)N3CCOCC3)cn2)c1=O` [Compound I-3, 8-tert-Butyl-4-(2-hydroxymethyl-3-{1-methyl-5-[5-(morpholine-4-carbonyl)-pyridin-2-ylamino]-6-oxo-1,6-dihydro-pyridin-3-yl}-phenyl)-1,2,3,4-tetrahydro-benzo[e][1,4]diazepin-5-one] gave an IC50 of 18 nM.
In the case of `CN1CCN(c2ccc(Nc3cc(-c4cccc(N5CCNc6cc(C(C)(C)C)ccc6C5=O)c4CO)cn(C)c3=O)nc2)CC1` [Compound I-4, 8-tert-Butyl-4-(2-hydroxymethyl-3-{1-methyl-5-[5-(4-methyl-piperazin-1-yl)-pyridin-2-ylamino]-6-oxo-1,6-dihydro-pyridin-3-yl}-phenyl)-1,2,3,4-tetrahydro-benzo[e][1,4]diazepin-5-one], the IC50 is reported as 38 nM.
With `Cn1cc(-c2cccc(N3CCOc4cc(C(C)(C)C)ccc4C3=O)c2CO)cc(Nc2ccc(C(=O)N3CCOCC3)cn2)c1=O` [II-1, 8-tert-Butyl-4-(2-hydroxymethyl-3-{1-methyl-5-[5-(morpholine-4-carbonyl)-pyridin-2-ylamino]-6-oxo-1,6-dihydro-pyridin-3-yl}-phenyl)-3,4-dihydro-2H-benzo[f][1,4]oxazepin-5-one] the IC50 was 16 nM.
`CN1CCN(c2ccc(Nc3cc(-c4cccc(N5CCOc6cc(C(C)(C)C)ccc6C5=O)c4CO)cn(C)c3=O)nc2)CC1` [II-2, 8-tert-Butyl-4-(2-hydroxymethyl-3-{1-methyl-5-[5-(4-methyl-piperazin-1-yl)-pyridin-2-ylamino]-6-oxo-1,6-dihydro-pyridin-3-yl}-phenyl)-3,4-dihydro-2H-benzo[f][1,4]oxazepin-5-one] gave an IC50 of 4 nM.
With `CCN1CCN(c2ccc(Nc3cc(-c4cccc(N5CCOc6cc(C(C)(C)C)ccc6C5=O)c4CO)cn(C)c3=O)nc2)CC1` [II-3, 8-tert-Butyl-4-(3-{5-[5-(4-ethyl-piperazin-1-yl)-pyridin-2-ylamino]-1-methyl-6-oxo-1,6-dihydro-pyridin-3-yl}-2-hydroxymethyl-phenyl)-3,4-dihydro-2H-benzo[f][1,4]oxazepin-5-one] the IC50 was 8 nM.
